The supplement of paper PMC10307832

How the values were obtained:
Assay in all cases: relative viability (nuclei count vs DMSO), 5 days (fraction); higher = more cells survive
NCI-H2170 = system: NCI-H2170
In short: (§1)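 Medians of duplicate plates are given as relative viability. That measure is the nuclei count in treated wells divided by the count in vehicle wells. Counts were taken on 4× images of lung cancer cell lines in 1536-well plates, 5 days after pin-tool dosing the day after seeding with one drug alone or a fixed anchor-drug dose plus five library-drug doses (not always all listed) in √10 steps.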

NCI-H441 = system: NCI-H441
In short: as §1

NCI-H1666 = system: NCI-H1666
In short: as §1

NCI-H727 = system: NCI-H727
In short: as §1

EPLC-272H = system: EPLC-272H
In short: as §1

NCI-H838 = system: NCI-H838
In short: as §1

LCLC-103H = system: LCLC-103H
In short: as §1

PC-3 [JPC-3] = system: PC-3 [JPC-3]
In short: as §1

NCI-H1792 = system: NCI-H1792
In short: as §1

NCI-H2342 = system: NCI-H2342
In short: as §1

NCI-H2228 = system: NCI-H2228
In short: as §1

NCI-H1755 = system: NCI-H1755
In short: as §1

EMC-BAC-2 = system: EMC-BAC-2
In short: as §1

HCC-78 = system: HCC-78
In short: as §1

SK-MES-1 = system: SK-MES-1
In short: as §1

NCI-H1793 = system: NCI-H1793
In short: as §1

201T = system: 201T
In short: as §1

NCI-H2126 = system: NCI-H2126
In short: as §1

NCI-H1355 = system: NCI-H1355
In short: as §1

SW 1573 = system: SW 1573
In short: as §1

NCI-H520 = system: NCI-H520
In short: as §1

NCI-H1975 = system: NCI-H1975
In short: as §1

Molecule `Nc1cccc2c1CN(C1CCC(=O)NC1=O)C2=O` (configuration not stated) [Lenalidomide] + CC(=O)Nc1cccc(-n2c(=O)n(C3CC3)c(=O)c3c(Nc4ccc(I)cc4F)n(C)c(=O)c(C)c32)c1 [Trametinib] (partner 0.02 µM) has a relative viability (NCI-H2170; first compound 0.253 µM) of 0.933, a relative viability (NCI-H2170; first compound 0.8 µM) of 0.886 and a relative viability (NCI-H2170; first compound 2.53 µM) of 0.954. The relative viability (NCI-H2170; first compound 8 µM) was 0.823, the relative viability (NCI-H441; first compound 0.253 µM) was 0.484 and the relative viability (NCI-H441; first compound 0.8 µM) was 0.258. The relative viability (NCI-H441; first compound 2.53 µM) was 0.623, the relative viability (NCI-H441; first compound 8 µM) was 0.387 and the relative viability (NCI-H1666; first compound 0.253 µM) was 0.859. It also gave a relative viability (NCI-H1666; first compound 0.8 µM) of 0.765, a relative viability (NCI-H1666; first compound 2.53 µM) of 0.93 and a relative viability (NCI-H1666; first compound 8 µM) of 0.784. For the same molecule, the relative viability (NCI-H727; first compound 0.253 µM) was 0.383, the relative viability (NCI-H727; first compound 0.8 µM) was 0.378 and the relative viability (NCI-H727; first compound 2.53 µM) was 0.35. It also gave a relative viability (NCI-H727; first compound 8 µM) of 0.376, a relative viability (EPLC-272H; first compound 0.253 µM) of 0.284 and a relative viability (EPLC-272H; first compound 0.8 µM) of 0.272. It also gave a relative viability (EPLC-272H; first compound 2.53 µM) of 0.34, a relative viability (EPLC-272H; first compound 8 µM) of 0.313 and a relative viability (NCI-H838; first compound 0.253 µM) of 0.517. For the same molecule, the relative viability (NCI-H838; first compound 0.8 µM) was 0.463, the relative viability (NCI-H838; first compound 2.53 µM) was 0.625 and the relative viability (NCI-H838; first compound 8 µM) was 0.378. The relative viability (LCLC-103H; first compound 0.253 µM) was 0.687, the relative viability (LCLC-103H; first compound 0.8 µM) was 0.623 and the relative viability (LCLC-103H; first compound 2.53 µM) was 0.656. It also gave a relative viability (LCLC-103H; first compound 8 µM) of 0.617, a relative viability (PC-3 [JPC-3]; first compound 0.253 µM) of 0.705 and a relative viability (PC-3 [JPC-3]; first compound 0.8 µM) of 0.681. For the same molecule, the relative viability (PC-3 [JPC-3]; first compound 2.53 µM) was 0.731, the relative viability (PC-3 [JPC-3]; first compound 8 µM) was 0.743 and the relative viability (NCI-H1792; first compound 0.253 µM) was 0.445. For the same molecule, the relative viability (NCI-H1792; first compound 0.8 µM) was 0.369, the relative viability (NCI-H1792; first compound 2.53 µM) was 0.59 and the relative viability (NCI-H1792; first compound 8 µM) was 0.366. The relative viability (NCI-H2342; first compound 0.253 µM) was 0.796, the relative viability (NCI-H2342; first compound 0.8 µM) was 0.894 and the relative viability (NCI-H2342; first compound 2.53 µM) was 0.739. The relative viability (NCI-H2342; first compound 8 µM) was 0.692, the relative viability (NCI-H2228; first compound 0.253 µM) was 0.629 and the relative viability (NCI-H2228; first compound 0.8 µM) was 0.315. It also gave a relative viability (NCI-H2228; first compound 2.53 µM) of 0.695, a relative viability (NCI-H2228; first compound 8 µM) of 0.363 and a relative viability (NCI-H1755; first compound 0.253 µM) of 0.729. It also gave a relative viability (NCI-H1755; first compound 0.8 µM) of 0.806, a relative viability (NCI-H1755; first compound 2.53 µM) of 0.766 and a relative viability (NCI-H1755; first compound 8 µM) of 0.63. The relative viability (EMC-BAC-2; first compound 0.253 µM) was 0.888, the relative viability (EMC-BAC-2; first compound 0.8 µM) was 0.848 and the relative viability (EMC-BAC-2; first compound 2.53 µM) was 0.922. The relative viability (EMC-BAC-2; first compound 8 µM) was 0.747, the relative viability (HCC-78; first compound 0.253 µM) was 0.728 and the relative viability (HCC-78; first compound 0.8 µM) was 0.633. For the same molecule, the relative viability (HCC-78; first compound 2.53 µM) was 0.692, the relative viability (HCC-78; first compound 8 µM) was 0.822 and the relative viability (SK-MES-1; first compound 0.253 µM) was 0.599. It also gave a relative viability (SK-MES-1; first compound 0.8 µM) of 0.628, a relative viability (SK-MES-1; first compound 2.53 µM) of 0.568 and a relative viability (SK-MES-1; first compound 8 µM) of 0.578. The relative viability (NCI-H1793; first compound 0.253 µM) was 0.458, the relative viability (NCI-H1793; first compound 2.53 µM) was 0.474 and the relative viability (NCI-H1793; first compound 8 µM) was 0.451. It also gave a relative viability (201T; first compound 0.253 µM) of 0.719, a relative viability (201T; first compound 0.8 µM) of 0.754 and a relative viability (201T; first compound 2.53 µM) of 0.762. It also gave a relative viability (201T; first compound 8 µM) of 0.713, a relative viability (NCI-H2126; first compound 0.253 µM) of 0.572 and a relative viability (NCI-H2126; first compound 0.8 µM) of 0.526. The relative viability (NCI-H2126; first compound 2.53 µM) was 0.597, the relative viability (NCI-H2126; first compound 8 µM) was 0.462 and the relative viability (NCI-H1355; first compound 0.253 µM) was 0.431. The relative viability (NCI-H1355; first compound 0.8 µM) was 0.316, the relative viability (NCI-H1355; first compound 2.53 µM) was 0.402 and the relative viability (NCI-H1355; first compound 8 µM) was 0.267. For the same molecule, the relative viability (SW 1573; first compound 0.253 µM) was 0.583, the relative viability (SW 1573; first compound 0.8 µM) was 0.67 and the relative viability (SW 1573; first compound 2.53 µM) was 0.583. It also gave a relative viability (SW 1573; first compound 8 µM) of 0.596, a relative viability (NCI-H520; first compound 0.253 µM) of 0.732 and a relative viability (NCI-H520; first compound 0.8 µM) of 0.615. It also gave a relative viability (NCI-H520; first compound 2.53 µM) of 0.835, a relative viability (NCI-H520; first compound 8 µM) of 0.452 and a relative viability (NCI-H1975; first compound 0.253 µM) of 0.388. The relative viability (NCI-H1975; first compound 0.8 µM) was 0.201, the relative viability (NCI-H1975; first compound 2.53 µM) was 0.36 and the relative viability (NCI-H1975; first compound 8 µM) was 0.234.
